# Measurements as given in patent publication US9284308B2, “Methylene linked quinolinyl modulators of RORγt” (Janssen Pharmaceutica NV, priority 2013, dated 2016).
# Where a name gives a salt, the structure may show the parent alone.
# Assays:
# [1] = test system: IL-17 production by CD4 T cells; test: Human Th17 assay; type: cell-based; conditions: IL-17 production by human CD4 T cells
# Protocol: The human Th17 assay tests the effect of RORγt modulatory compounds on IL-17 production by CD4 T cells under conditions which favor Th17 differentiation. Total CD4^+ T cells were isolated from the peripheral blood mononuclear cells (PBMC) of healthy donors using a CD4^+ T cell isolation kit II, following the manufacturer's instructions (Miltenyi Biotec). […] 50 μL of compound at titrated concentrations in DMSO were added into each well at final DMSO concentration at 0.2%. Cells were incubated for 1 hour, then 50 μL of Th17 cell differentiation medium was added to each well. The final concentrations of antibodies and cytokines (R&D Systems) in differentiation medium were: 3×10^6/mL anti-CD3/CD28 beads (prepared using human T cell activation/expansion kit, Miltenyi Biotec), 10 μg/mL anti-IL4, 10 μg/mL anti-IFNγ, 10 ng/mL IL1β, 10 ng/mL IL23, 50 ng/mL IL6, 3 ng/mL TGFβ and 20 U/mL IL2. Cells were cultured at 37° C. and 5% CO2 for 3 days. Supernatants were collected and the accumulated IL-17 in culture was measured by using MULTI-SPOT® Cytokine Plate following manufacture's instruction (Meso Scale Discovery). The plate was read using Sector Imager 6000, and IL-17 concentration was extrapolated from the standard curve. The IC50s were determined by GraphPad.
# [2] = target: T1, human RORγt ligand binding domain (RORγt LBD) (Homo sapiens, UniProt P51449); test: RORγt ThermoFluor assay (ligand binding affinity from protein thermal stability)
# T1 construct: His-tag (N); TurboTEV protease cleavage site (ENLYFQG) (N); made in house; host or cells: E. coli (pHIS1, modified pET vector)
# T1 sequence (P51449 with tags, fused parts or gaps): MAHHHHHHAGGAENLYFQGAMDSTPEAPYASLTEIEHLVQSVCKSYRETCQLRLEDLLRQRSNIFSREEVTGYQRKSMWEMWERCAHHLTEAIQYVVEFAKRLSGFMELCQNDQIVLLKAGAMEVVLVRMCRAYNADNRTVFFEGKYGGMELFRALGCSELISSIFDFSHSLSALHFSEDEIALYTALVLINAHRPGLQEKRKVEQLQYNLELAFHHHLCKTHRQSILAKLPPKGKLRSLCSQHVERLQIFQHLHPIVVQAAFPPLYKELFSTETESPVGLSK
# Protocol: This approach is applicable to a wide variety of systems, and rigorous in theoretical interpretation through quantitation of equilibrium binding constants (KD).
# The shift in the melting point described as a ΔTm is proportional to the concentration and affinity of the ligand.
# RORγt ThermoFluor® Assay Construct
# Protein and compound solutions are dispensed into black 384-well polypropylene PCR microplates (Abgene) and overlayed with silicone oil (1 μL, Fluka, type DC 200) to prevent evaporation.
# Bar-coded assay plates are robotically loaded onto a thermostatically controlled PCR-type thermal block and then heated at a typical ramp-rate of 1° C./min for all experiments. Fluorescence was measured by continuous illumination with UV light (Hamamatsu LC6) supplied via fiber optic and filtered through a band-pass filter (380-400 nm; >6 OD cutoff). Fluorescence emission of the entire 384-well plate was detected by measuring light intensity using a CCD camera (Sensys, Roper Scientific) filtered to detect 500±25 nm, resulting in simultaneous and independent readings of all 384 wells. Images were collected at each temperature, and the sum of the pixel intensity in a given area of the assay plate was recorded versus temperature. Reference wells contained RORγt without compounds, and the assay conditions were as follows: • 0.065 mg/mL RORγt • 60 μM 1,8-ANS • 100 mM Hepes, pH 7.0 • 10 mM NaCl • 2.5 mM GSH • 0.002% Tween-20
# Project compounds were arranged in a pre-dosed mother plate (Greiner Bio-one) wherein compounds are serially diluted in 100% DMSO by 1:2 from a high concentration of 10 mM over 12 columns within a series (column 12 is a reference well containing DMSO, no compound). The compounds were robotically dispensed directly into assay plates (1×=[…]) using a Hummingbird capillary liquid handling instrument (Digilab). Following compound dispense, protein and dye in buffer was added to achieve the final assay volume of 3 μL, followed by 1 μL of silicone oil.
# human RORγt LBD = target: T2, human RORγt LBD (Homo sapiens, UniProt P51449); test: RORγt (LBD) reporter assay in HEK293T cells; type: cell-based; conditions: for inhibition at 6 µM: HEK-293T, read-out: RORγt (LBD) Reporter Assay, % inhibition @ 6 μM, 6 μM compound
# T2 construct: expressed in transfected cells; host or cells: HEK293T
# T2 sequence (P51449 258-518): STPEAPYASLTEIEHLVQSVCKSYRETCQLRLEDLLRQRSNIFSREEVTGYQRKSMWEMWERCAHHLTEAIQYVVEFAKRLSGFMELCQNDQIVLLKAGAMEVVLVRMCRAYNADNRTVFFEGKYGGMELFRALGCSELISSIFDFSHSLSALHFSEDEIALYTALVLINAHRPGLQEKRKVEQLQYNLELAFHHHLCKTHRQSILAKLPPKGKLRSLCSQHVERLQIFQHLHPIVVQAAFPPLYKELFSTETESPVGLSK
# Description: RORγt (LBD) Reporter Assay
# Cells used in the assay were co-transfected with two constructs. The first construct, pBIND-RORγt LBD, contained the wild type human RORγt LBD fused to the DNA binding domain of the GAL4 protein. The second construct, pGL4.31 (Promega Cat no. C935A), contained multiple GAL4 responsive DNA elements upstream of firefly luciferase. […] The mutant construct was called pBIND-RORγt-AF2.
# The pBIND vector contains the GAL4 DNA Binding Domain (GAL4 DBD) and the renilla luciferase gene under control of the SV40 promoter. Renilla luciferase expression serves as a control for transfection efficiency and cell viability.
# The reporter assay was performed by transiently transfecting HEK293T cells with 5 μg of pBIND-RORγt LBD or pBIND-RORγt LBD-AF2 and 5 μg pGL4.31 (Promega Cat no. C935A) using Fugene 6 (Invitrogen Cat no. E2691) at a 1:6 ratio of DNA:Fugene 6 in a T-75 flask in which cells were at least 80% confluent. Twenty four hours after bulk transfection, cells were plated into 96-well plates at 50,000 cells/well in phenol-red free DMEM containing 5% Lipid Reduced FCS and Pen/Strep. Six hours after plating, cells were treated with compounds for 24 hours. Media was removed and cells were lysed with 50 μL 1× Glo Lysis Buffer (Promega). Dual Glo Luciferase Reagent (50 μL/well) was then added and firefly luciferase luminescence was read on an Envision after a ten minute incubation. Finally, Stop and Glo reagent (50 μL/well) was added and renilla luciferase luminescence was read on an Envision after a ten minute incubation. […] Agonist compounds increase RORγt-driven luciferase expression, and antagonist or inverse agonist compounds decrease luciferase expression.
SMILES,"IC50 ([1]; Homo sapiens, CD4+ T) [nM]",IC50 [1] [nM],Kd [2] [nM],IC50 (human RORγt LBD) [nM],inhibition at 6 µM (human RORγt LBD) [%],"RORγt (LBD) Reporter Assay, % inhibition @ 6 μM (human RORγt LBD; 6 μM compound, 6 µM) [%]"
"CCc1nc2ccc(C(O)(c3cnnn3C)c3cnc(C)n3C)cc2c(Cl)c1Cc1ccc(C(F)(F)F)cc1 (single isomer, unassigned) [Example 25b, (4-Chloro-2-ethyl-3-(4-(trifluoromethyl)benzyl)quinolin-6-yl)(1,2-dimethyl-1H-imidazol-5-yl)(1-methyl-1H-1,2,3-triazol-5-yl)methanol]",2.1,,,,,
"COc1nc2ccc(C(N)(c3ccc(Cl)cc3)c3cncn3C)cc2c(Cl)c1Cc1ccc(-n2cccn2)cc1 (single isomer, unassigned) [Example 118c, (3-(4-(1H-Pyrazol-1-yl)benzyl)-4-chloro-2-methoxyquinolin-6-yl)(4-chlorophenyl)(1-methyl-1H-imidazol-5-yl)methanamine•TFA]",,50,,,,
"CNC(c1ccc2nc(OC)c(Cc3ccc(C(F)(F)F)cc3)c(Cl)c2c1)(c1ccc(C)nc1C)c1cnnn1C (single isomer, unassigned) [Example 121b, 1-(4-Chloro-2-methoxy-3-(4-(trifluoromethyl)benzyl)quinolin-6-yl)-1-(2,6-dimethylpyridin-3-yl)-N-methyl-1-(1-methyl-1H-1,2,3-triazol-5-yl)methanamine•TFA]",,,370,410,,
"CNC(c1ccc2nc(OC)c(Cc3ccc(C(F)(F)F)cc3)c(Cl)c2c1)(c1ccc(C)nc1C)c1cnnn1C (single isomer, unassigned) [Example 121c, 1-(4-Chloro-2-methoxy-3-(4-(trifluoromethyl)benzyl)quinolin-6-yl)-1-(2,6-dimethylpyridin-3-yl)-N-methyl-1-(1-methyl-1H-1,2,3-triazol-5-yl)methanamine•TFA]",,,130,220,,
"COc1nc2ccc(C(c3ccc(C)nc3C)(c3cnnn3C)N(C)C)cc2c(Cl)c1Cc1ccc(C(F)(F)F)cc1 (single isomer, unassigned) [Example 122b, 1-(4-Chloro-2-methoxy-3-(4-(trifluoromethyl)benzyl)quinolin-6-yl)-1-(2,6-dimethylpyridin-3-yl)-N,N-dimethyl-1-(1-methyl-1H-1,2,3-triazol-5-yl)methanamine•TFA]",,,> 83000,1400,,
"COc1nc2ccc(C(c3ccc(C)nc3C)(c3cnnn3C)N(C)C)cc2c(Cl)c1Cc1ccc(C(F)(F)F)cc1 (single isomer, unassigned) [Example 122c, 1-(4-Chloro-2-methoxy-3-(4-(trifluoromethyl)benzyl)quinolin-6-yl)-1-(2,6-dimethylpyridin-3-yl)-N,N-dimethyl-1-(1-methyl-1H-1,2,3-triazol-5-yl)methanamine•TFA]",,,2.2,87,,
"COc1nc2ccc(C(O)(c3oc(C)nc3C)c3cnnn3C)cc2c(Cl)c1Cc1ccc(C(F)(F)F)cc1 (single isomer, unassigned) [Example 156b, (4-chloro-2-methoxy-3-(4-(trifluoromethyl)benzyl)quinolin-6-yl)(2,4-dimethyloxazol-5-yl)(1-methyl-1H-1,2,3-triazol-5-yl)methanol]",,,75,87,98,
"COc1nc2ccc(C(O)(c3oc(C)nc3C)c3cnnn3C)cc2c(Cl)c1Cc1ccc(C(F)(F)F)cc1 (single isomer, unassigned) [Example 156c, (4-chloro-2-methoxy-3-(4-(trifluoromethyl)benzyl)quinolin-6-yl)(2,4-dimethyloxazol-5-yl)(1-methyl-1H-1,2,3-triazol-5-yl)methanol]",,,0.59,1.9,,99
"COc1nc2ccc(C(O)(c3ccc(C(F)(F)F)cc3)c3cccnc3)cc2c(Cl)c1Cc1ccc(-n2cccn2)cc1 (single isomer, unassigned) [Example 162b]",,,16000,1100,81,
"COc1nc2ccc(C(O)(c3cnc(C)n3C)c3cnc(C)n3C)cc2c(Cl)c1Cc1ccc(-n2cccn2)cc1 [Example 13, (3-(4-(1H-Pyrazol-1-yl)benzyl)-4-chloro-2-methoxyquinolin-6-yl)bis(1,2-dimethyl-1H-imidazol-5-yl)methanol]",,100,,,,
"COc1nc2ccc(C(O)(c3ccc(C)nc3C)c3cnnn3C)cc2c(Cl)c1Cc1ccc(F)cc1 (centres unmarked) [Example 48a, (4-Chloro-3-(4-fluorobenzyl)-2-methoxyquinolin-6-yl)(2,6-dimethylpyridin-3-yl)(1-methyl-1H-1,2,3-triazol-5-yl)methanol]",,,0.85,450,61,
"COc1nc2ccc(C(O)(c3ccc(C)nc3C)c3cnnn3C)cc2c(C#N)c1Cc1ccc(F)cc1 (centres unmarked) [Example 49a, 6-((2,6-Dimethylpyridin-3-yl)(hydroxy)(1-methyl-1H-1,2,3-triazol-5-yl)methyl)-3-(4-fluorobenzyl)-2-methoxyquinoline-4-carbonitrile]",,,1.7,52,84,
"COc1nc2ccc(C(O)(c3ccccn3)c3cncn3C)cc2c(Cl)c1Cc1ccc(C(F)(F)F)cc1 (centres unmarked) [Example 68, (4-Chloro-2-methoxy-3-(4-(trifluoromethyl)benzyl)quinolin-6-yl)(1-methyl-1H-imidazol-5-yl)(pyridin-2-yl)methanol•TFA]",,,53,65,101,
"COc1nc2ccc(C(O)(c3ccc(Cl)cc3)c3cncn3C)cc2c(Cl)c1Cc1cccc(C#N)c1 (centres unmarked) [Example 70, 3-((4-Chloro-6-((4-chlorophenyl)(hydroxy)(1-methyl-1H-imidazol-5-yl)methyl)-2-methoxyquinolin-3-yl)methyl)benzonitrile•TFA]",,,120,430,94,
